Experimental data as given in US20030139578A1, “Antibodies specifically binding PDE8A and PDE8B” (Incyte Genomics, Inc., priority 1996, published 2003).

Target: T1, PDE8A(E) (Homo sapiens, UniProt O60658)
T1 construct: A 1.6 kb region of PDE8A(E) (the C-terminal 545 amino acids) was amplified and cloned into the baculovirus transfer vector pFASTBAC; made in house; host or cells: Sf9 insect cells (baculovirus, pFASTBAC)
Assay: PDE activity assay, conversion of 3H-cAMP to 3H-adenosine by recombinant PDE8A(E)
Assay type: biochemical
Conditions: for inhibition of PDE8A(E) activity: 1% DMSO, 50 nM cAMP, FIG. 8
Description: Recombinant virus stocks were prepared according to the manufacturer's protocol. Sf9 cells were cultured in Sf900 II Sfm serum free media (Invitrogen) at 27 C. For expression, 1×10^8 Sf9 cells were infected at a multiplicity of infection of 5 in a final volume of 50 mls. At three days post-infection, the cells were harvested, and enzyme-containing lysates were prepared as described below.
PDE8A(E) to be used for assay was prepared from transfected Sf9 cells. Cells were harvested by centrifugation, resuspended in homogenization buffer (20 mM Tris-HCl, 2 mM benzamidine, 1 mM EDTA, 0.25 M sucrose, 100 uM PMSF, pH 7.5) at 1×10^7 cells/ml, and disrupted with 3×10 second pulses using a Sonifier Processor (Emerson Branson, Korea). Cellular debris was removed by centrifugation at 14,000×g for 10 minutes. The supernatant was stored at −70° C.
PDE activity was assayed by measuring the conversion of ^3H-cAMP to ^3H-adenosine in the presence of PDE8A(E) and 5′ nucleotidase. […] The reaction was started by the addition of 25 ul of diluted enzyme supernatant. Reactions were run directly in mini Poly-Q scintillation vials (BeckmanCoulter, Fullerton Calif.). […] The reaction was stopped by the addition of 1 ml of Dowex AG1×8 (C1 form) resin (1:3 slurry). Three ml of scintillation fluid were added, the contents of the vials were mixed, and the resin in the vials was allowed to settle for 1 hr before counting. Soluble radioactivity associated with ^3H-adenosine was quantitated using a Beta scintillation counter. The amount of radioactivity recovered is proportional to the activity of PDE8 in the reaction. For inhibitor studies (FIG. 8), all reactions contained 1% DMSO, 50 nM cAMP, and the indicated inhibitor concentrations. The control vial contained all reagents minus the enzyme aliquot.

T1 sequence (O60658 285-829 limits assumed): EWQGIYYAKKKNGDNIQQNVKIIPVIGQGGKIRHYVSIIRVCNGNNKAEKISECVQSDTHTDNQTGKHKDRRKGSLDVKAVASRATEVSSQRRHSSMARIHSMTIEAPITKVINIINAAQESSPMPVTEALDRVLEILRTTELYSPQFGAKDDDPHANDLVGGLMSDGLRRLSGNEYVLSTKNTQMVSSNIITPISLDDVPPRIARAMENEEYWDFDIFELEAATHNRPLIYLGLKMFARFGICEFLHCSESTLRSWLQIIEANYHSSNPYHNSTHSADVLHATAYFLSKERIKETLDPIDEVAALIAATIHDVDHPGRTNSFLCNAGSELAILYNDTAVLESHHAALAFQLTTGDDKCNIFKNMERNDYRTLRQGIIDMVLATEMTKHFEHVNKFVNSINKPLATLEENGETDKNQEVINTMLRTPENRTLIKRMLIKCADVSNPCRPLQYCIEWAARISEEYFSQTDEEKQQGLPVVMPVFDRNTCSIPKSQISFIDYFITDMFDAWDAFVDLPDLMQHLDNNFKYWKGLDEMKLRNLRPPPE

| SMILES | inhibition of PDE8A(E) activity | IC50 [µM] |
| --- | --- | --- |
| CCOC(=O)C1=C[C@]2(CC)CCCN3CCc4c(n1c1ccccc41)[C@@H]32 [vinpocetine] | not inhibited |  |
| COc1ccc(C2CNC(=O)C2)cc1OC1CCCC1 (stereo not drawn) [rolipram] | not inhibited |  |
| OCCN(CCO)c1nc(N2CCCCC2)c2nc(N(CCO)CCO)nc(N3CCCCC3)c2n1 [dipyridamole] |  | 9 |
| CC(C)Cn1c(=O)n(C)c(=O)c2[nH]cnc21 [IBMX] | not inhibited |  |
| CC(=O)Nc1ccc(-c2c[nH]c(=O)cn2)cc1 [SKF94120] | not inhibited |  |
| CCCOc1ccccc1-c1nc2nn[nH]c2c(=O)[nH]1 [zaprinast] | not inhibited |  |
